Laboratory results published in patent US20120282377A1, “Methods and Formulations for Inhibiting Degradation of Photosensitive Sweeteners and Sweetener Enhancers” (priority 2011, published 2012).
“And” between values parts separate entries of the source, which are not always exact repeats. Equal values may be shown once.

Key:
Type in all cases: physicochemical
[1] = Monatin stability in lemon-lime beverage with EMIQ, visible light (Example 4); conditions: for % Monatin remaining / Conc. of Monatin: with EMIQ
Protocol: (§1) The polyphenol enzymatically-modified isoquercitrin (EMIQ) was used to stabilize monatin (31 mg/L) in a lemon lime carbonated beverage formulation contained in either a regular (clear, colorless) PET bottle or a dark-colored PET bottle. The level of EMIQ in the samples was 7.5 PPM. A control formulation was used that contained no EMIQ. The samples were exposed to UV light or ambient indoor laboratory fluorescent lighting for up to 72 hours. UV light was administered in a UV chamber at 40° C. with approximately 400 Langley per 6 hours of exposure. The results listed below indicate that the monatin was very unstable in the control formulations with only 1.4% monatin remaining after 24 hours exposure to UV light. EMIQ provided protection from degradation of the monatin. When packaged in a dark-colored PET bottle approximately 89% monatin remained in the formulation after exposure to UV light for 24 hours. When exposed to ambient indoor laboratory lighting for 72 hours over 90% monatin remained in both clear and dark PET bottles containing the EMIQ polyphenol. All analyses were done by HPLC/MS.

[2] = Visual analysis of UV and light exposed monatin samples by 6 panelists; set-up: key: (+) = colorless; (−) = color change (color noted); conditions: 30 PPM in lemon lime matrix pH 3.35, panelists 1-6
Protocol: A survey of odor and visual analysis of the UV and light exposed samples of the monatin samples was conducted by 6 panelists. Samples for analysis were solution of monatin in a lemon lime matrix without flavor at pH 3.35 (30 PPM monatin) exposed to visible for three days or UV light for 24 hours (equivalent of four days sun exposure).

[3] = Monatin stability in lemon-lime beverage with or without EMIQ, UV irradiation (Example 4)
Protocol: as §1

[4] = dark-colored PET, Vis. exp. 0 hours
[5] = dark-colored PET, Vis. exp. 5 hours
[6] = dark-colored PET, Vis. exp. 7 hours
[7] = dark-colored PET, Vis. exp. 23 hours
[8] = dark-colored PET, Vis. exp. 28 hours
[9] = dark-colored PET, Vis. exp. 48 hours
[10] = regular PET, Vis. exp. 23 hours
[11] = regular PET, Vis. exp. 28 hours
[12] = regular PET, Vis. exp. 48 hours
[13] = dark-colored PET, with EMIQ 7.5 PPM, UV exp. 0 hours
[14] = dark-colored PET, with EMIQ 7.5 PPM, UV exp. 6 hours
[15] = dark-colored PET, with EMIQ 7.5 PPM, UV exp. 12 hours
[16] = dark-colored PET, with EMIQ 7.5 PPM, UV exp. 18 hours
[17] = dark-colored PET, with EMIQ 7.5 PPM, UV exp. 24 hours
[18] = regular PET, no EMIQ, UV exp. 0 hours
[19] = regular PET, no EMIQ, UV exp. 6 hours
[20] = regular PET, no EMIQ, UV exp. 12 hours
[21] = regular PET, no EMIQ, UV exp. 18 hours
[22] = regular PET, no EMIQ, UV exp. 24 hours
[23] = regular PET, with EMIQ 7.5 PPM, UV exp. 0 hours
[24] = regular PET, with EMIQ 7.5 PPM, UV exp. 6 hours
[25] = regular PET, with EMIQ 7.5 PPM, UV exp. 12 hours
[26] = regular PET, with EMIQ 7.5 PPM, UV exp. 18 hours
[27] = regular PET, with EMIQ 7.5 PPM, UV exp. 24 hours

With `NC(CC(O)(Cc1c[nH]c2ccccc12)C(=O)O)C(=O)O` (stereo not drawn) [Monatin, 2-amino-4-carboxy-4-hydroxy-5-(3-indolyl)-pentanoic acid] the monatin remained ([1]; ambient indoor laboratory lighting for 72 hours, both clear and dark PET bottles containing the EMIQ polyphenol) was “over 90%”, the “% Monatin remaining” value [1, 4] was 100% and the “Conc. of Monatin” value [1, 4] was 30930 ng/mL. The “% Monatin remaining” value [1, 5] was 97.5%, the “Conc. of Monatin” value [1, 5] was 30160 ng/mL and the “% Monatin remaining” value [1, 6] was 96.4% and 96.2%. The “Conc. of Monatin” value [1, 6] was 29810 ng/mL and 29760 ng/mL, the “% Monatin remaining” value [1, 7] was 93.3% and 93.1% and the “Conc. of Monatin” value [1, 7] was 28870 ng/mL and 28790 ng/mL. The “% Monatin remaining” value [1, 8] was 94.5%, the “Conc. of Monatin” value [1, 8] was 29220 ng/mL and the “% Monatin remaining” value [1, 9] was 92.1% and 92.4%. For the same compound, the “Conc. of Monatin” value [1, 9] was 28490 ng/mL and 28590 ng/mL, the “% Monatin remaining” value ([1]; regular PET, Vis. exp. 0 hours) was 100% and the “Conc. of Monatin” value ([1]; regular PET, Vis. exp. 0 hours) was 30930 ng/mL. For the same compound, the “% Monatin remaining” value ([1]; regular PET, Vis. exp. 5 hours) was 99.0% and 98.6%, the “Conc. of Monatin” value ([1]; regular PET, Vis. exp. 5 hours) was 30620 ng/mL and 30510 ng/mL and the “% Monatin remaining” value ([1]; regular PET, Vis. exp. 7 hours) was 97.2% and 97.4%. The “Conc. of Monatin” value ([1]; regular PET, Vis. exp. 7 hours) was 30060 ng/mL and 30120 ng/mL, the “% Monatin remaining” value [1, 10] was 94.1% and the “Conc. of Monatin” value [1, 10] was 29100 ng/mL. The “% Monatin remaining” value [1, 11] was 94.7% and 94.8%, the “Conc. of Monatin” value [1, 11] was 29270 ng/mL and 29320 ng/mL and the “% Monatin remaining” value [1, 12] was 92.7% and 92.5%. The “Conc. of Monatin” value [1, 12] was 28680 ng/mL and 28610 ng/mL, the Visual analysis ([2]; PET with UV barrier, UV light 24 hours) was “−” and the Visual analysis ([2]; PET with UV barrier, visible light three days) was “+”. For the same compound, the Visual analysis ([2]; Regular PET, UV light 24 hours) was “−”, the Visual analysis ([2]; Regular PET, visible light three days) was “+” and the “% Monatin remaining” value [3, 13] was 100%. For the same compound, the “Conc. of Monatin” value [3, 13] was 30930 ng/mL, the “% Monatin remaining” value [3, 14] was 92.4% and 92.3% and the “Conc. of Monatin” value [3, 14] was 28590 ng/mL and 28530 ng/mL. For the same compound, the “% Monatin remaining” value [3, 15] was 90.7% and 90.9%, the “Conc. of Monatin” value [3, 15] was 28050 ng/mL and 28100 ng/mL and the “% Monatin remaining” value [3, 16] was 90.7% and 90.5%. The “Conc. of Monatin” value [3, 16] was 28040 ng/mL and 28000 ng/mL, the “% Monatin remaining” value [3, 17] was 89.0% and 89.3% and the “Conc. of Monatin” value [3, 17] was 27510 ng/mL and 27620 ng/mL. For the same compound, the “% Monatin remaining” value ([3]; dark-colored PET, with EMIQ 7.5 PPM, UV exp. 24 hours, listed as monatin) was “approximately 89%”, the “% Monatin remaining” value [3, 18] was 100% and the “Conc. of Monatin” value [3, 18] was 30760 ng/mL and 30790 ng/mL. For the same compound, the “% Monatin remaining” value [3, 19] was 68.6%, the “Conc. of Monatin” value [3, 19] was 21130 ng/mL and 21110 ng/mL and the “% Monatin remaining” value [3, 20] was 9.4% and 9.3%. For the same compound, the “Conc. of Monatin” value [3, 20] was 2890 ng/mL and 2870 ng/mL, the “% Monatin remaining” value [3, 21] was 1.7% and 1.6% and the “Conc. of Monatin” value [3, 21] was 540 ng/mL and 510 ng/mL. The “% Monatin remaining” value [3, 22] was 1.4%, the “Conc. of Monatin” value [3, 22] was 430 ng/mL and 440 ng/mL and the “% Monatin remaining” value [3, 23] was 100%. The “Conc. of Monatin” value [3, 23] was 30930 ng/mL, the “% Monatin remaining” value [3, 24] was 83.1% and 82.9% and the “Conc. of Monatin” value [3, 24] was 25710 ng/mL and 25620 ng/mL. For the same compound, the “% Monatin remaining” value [3, 25] was 69.3%, the “Conc. of Monatin” value [3, 25] was 21420 ng/mL and 21440 ng/mL and the “% Monatin remaining” value [3, 26] was 52.0% and 51.7%. The “Conc. of Monatin” value [3, 26] was 16070 ng/mL and 15990 ng/mL, the “% Monatin remaining” value [3, 27] was 34.9% and 34.8% and the “Conc. of Monatin” value [3, 27] was 10800 ng/mL and 10760 ng/mL.
